According to patent publication US10947213B1 (Merck Patent GmbH, priority 2015, dated 2021):
Counter-ions that a name gives are not always drawn.

Target: T1, TLR7/NFKb HEK cells (Homo sapiens, UniProt Q9NYK1)
T1 construct: expressed in transfected cells; host or cells: HEK cells (TLR7/NFKb reporter line)
T1 sequence (Q9NYK1 27-1049): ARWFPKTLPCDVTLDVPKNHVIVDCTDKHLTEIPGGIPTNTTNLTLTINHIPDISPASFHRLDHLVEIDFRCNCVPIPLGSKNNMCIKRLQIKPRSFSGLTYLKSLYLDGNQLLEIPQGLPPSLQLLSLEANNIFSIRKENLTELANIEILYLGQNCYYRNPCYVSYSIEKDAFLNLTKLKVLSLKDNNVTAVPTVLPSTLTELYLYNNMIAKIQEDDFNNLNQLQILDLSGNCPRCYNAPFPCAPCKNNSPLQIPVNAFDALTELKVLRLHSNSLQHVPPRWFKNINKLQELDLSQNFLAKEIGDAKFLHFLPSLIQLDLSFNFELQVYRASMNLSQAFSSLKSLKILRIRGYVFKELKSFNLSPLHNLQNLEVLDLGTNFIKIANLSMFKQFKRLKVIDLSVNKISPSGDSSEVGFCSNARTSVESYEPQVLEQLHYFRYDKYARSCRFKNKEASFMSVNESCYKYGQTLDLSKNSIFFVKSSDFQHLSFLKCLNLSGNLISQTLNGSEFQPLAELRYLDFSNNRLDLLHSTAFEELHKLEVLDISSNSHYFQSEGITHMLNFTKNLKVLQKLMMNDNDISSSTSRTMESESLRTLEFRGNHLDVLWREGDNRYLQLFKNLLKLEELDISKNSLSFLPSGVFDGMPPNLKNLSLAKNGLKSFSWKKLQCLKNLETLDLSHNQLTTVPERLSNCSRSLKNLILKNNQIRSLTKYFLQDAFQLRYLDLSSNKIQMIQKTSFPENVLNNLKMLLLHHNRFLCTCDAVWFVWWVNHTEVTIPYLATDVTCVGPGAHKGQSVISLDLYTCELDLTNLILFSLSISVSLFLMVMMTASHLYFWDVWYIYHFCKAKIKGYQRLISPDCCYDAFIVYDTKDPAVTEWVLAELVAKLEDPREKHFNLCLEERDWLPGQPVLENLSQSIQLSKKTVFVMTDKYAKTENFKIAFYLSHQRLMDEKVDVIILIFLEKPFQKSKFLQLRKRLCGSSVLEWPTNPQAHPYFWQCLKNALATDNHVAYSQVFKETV
Experiment: HEK Cell Assay (TLR7/NFKb reporter, Steady-Glo luciferase readout)
Type: cell-based
Conditions: 30 min compound preincubation, then R*48 agonist for 5 hours, read-out: Potency
In short: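 Steady-Glo luminescence after 5 h stimulation with R*48 agonist, following 30 min compound preincubation. Assay run in HEK cells carrying a TLR7/NFKb luciferase reporter, plated at 5000 cells/well and grown 24 h at 37° C (10% CO2) before treatment.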

Compound | IC50 [nM]
COCCN[C@@H]1C[C@H](C2CC2)CN(c2ccc(C#N)c3nccnc23)C1 (relative stereo) [Compound 176, cis-8-[3-cyclopropyl-5-[(2-methoxyethyl)amino]piperidin-1-yl]quinoxaline-5-carbonitrile] | 1000 to 10000
C[C@H]1C[C@@H](NCC(N)=O)CN(c2ccnc3nccnc23)C1 [Compound 121, 2-[[(3R,5S)-5-methyl-1-[pyrido[2,3-b]pyrazin-8-yl]piperidin-3-yl]amino]acetamide] | > 10000
Fc1ccc2nccc(N3CCC(CNCCN4CCCCC4)CC3)c2c1 [Compound 378, [1-(6-Fluoro-quinolin-4-yl)-piperidin-4-ylmethyl]-(2-piperidin-1-yl-ethyl)-amine] | 1000 to 10000
CC1(C)C[C@@H](N)CN(c2ccnc3nccnc23)C1 [Compound 80, (R)-5,5-dimethyl-1-(pyrido[2,3-b]pyrazin-8-yl)piperidin-3-amine] | 1000 to 10000
C[C@H]1C[C@@H](NC(=O)C(N)C(F)(F)F)CN(c2ccc(C(F)(F)F)c3ncccc23)C1 (single isomer, unassigned) [Compound 197] | 1000 to 10000
CC(C)(N)CC(=O)NC1CN(c2ccc(C#N)c3nccnc23)CC(F)(F)C1 (stereo not drawn) [Compound 505, 3-Amino-N-[1-(8-cyano-quinoxalin-5-yl)-5,5-difluoro-piperidin-3-yl]-3-methyl-butyramide hydrochloride] | 1000 to 10000
C[C@H]1C[C@@H](NC(=O)Cn2cccn2)CN(c2ccnc3nccnc23)C1 [Compound 170, N-[(3R,5S)-5-methyl-1-[pyrido[2,3-b]pyrazin-8-yl]piperidin-3-yl]-2-(1H-pyrazol-1-yl)acetamidw] | > 10000
C[C@H]1C[C@@H](NC(=O)C2(C)COC2)CN(c2ccc(C#N)c3nccnc23)C1 [Compound 36, N-((3R,5S)-1-(8-cyanoquinoxalin-5-yl)-5-methylpiperidin-3-yl)-3-methyloxetane-3-carboxamide] | 1000 to 10000
c1ccc2c(N3CCC(CNCCN4CCOCC4)CC3)ccnc2c1 [Compound 7, 2-morpholino-N-((1-(quinolin-4-yl)piperidin-4-yl)methyl)ethanamine] | > 10000
C[C@@H]1CN(c2ccc(C#N)c3ncncc23)C[C@H](C)O1 [Compound 393, cis-5-(2,6-Dimethyl-morpholin-4-yl)-quinazoline-8-carbonitrile] | 1000 to 10000
N#Cc1ccc(N2CC(NC(=O)CCC(=O)N3CCC3)CC(C(F)(F)F)C2)c2cccnc12 (single isomer, unassigned) [Compound 494] | > 10000
C[C@H]1C[C@@H](NC(=O)C(N)C(F)(F)F)CN(c2c(F)cc(C#N)c3nccnc23)C1 (single isomer, unassigned) [Compound 345] | > 10000
CCN(CC)CCNC(=O)C1CCN(c2ccnc3ncccc23)CC1 [Compound 1, N-(2-(diethylamino)ethyl)-1-(1,8-naphthyridin-4-yl)piperidine-4-carboxamide] | > 10000
O=C(CN1CCOCC1)N[C@H]1C[C@@H](C2CC2)CN(c2ccc(C(F)(F)F)c3nccnc23)C1 (relative stereo) [Compound 335, cis-N-[5-cyclopropyl-1-[8-(trifluoromethyl)quinoxalin-5-yl]piperidin-3-yl]-2-(morpholin-4-yl)acetamide] | > 10000
C[C@@H]1CN(c2ccnc3ccccc23)C[C@H](C)O1 [Compound 45, (2S,6R)-2,6-dimethyl-4-(quinolin-4-yl)morpholine] | > 10000
Cc1ncc(N2C[C@@H](C)C[C@@H](NC(=O)CC(C)(C)O)C2)c2cccnc12 [Compound 555, 3-Hydroxy-3-methyl-N-[(3R,5S)-5-methyl-1-(8-methyl-[1,7]naphthyridin-5-yl)-piperidin-3-yl]-butyramide] | 1000 to 10000
C[C@H]1C[C@@H](N)CN(c2ccc(C(F)(F)F)c3nccnc23)C1 [Compound 77, (3R,5S)-5-methyl-1-[8-(trifluoromethyl)quinoxalin-5-yl]piperidin-3-amine] | < 1000

Further lines, results first:

IC50 [nM] | Compound
< 1000 | C[C@H]1C[C@@H](NC(=O)C(C2CC2)N(C)C)CN(c2ccc(C(F)(F)F)c3ncccc23)C1 (stereo partly drawn) [Compound 519, 2-Cyclopropyl-2-dimethylamino-N-[(3R,5S)-5-methyl-1-(8-trifluoromethyl-quinolin-5-yl)-piperidin-3-yl]-acetamide]
< 1000 | C[C@H]1C[C@@H](NC(=O)CC(O)C(C)(C)C)CN(c2ccc(C#N)c3nccnc23)C1 (single isomer, unassigned) [Compound 146]
< 1000 | CC1CC(C(=O)NCC2CCN(C)CC2)CN(c2ccc(C#N)c3nccnc23)C1 (stereo not drawn) [Compound 539, 1-(8-Cyano-quinoxalin-5-yl)-5-methyl-piperidine-3-carboxylic acid (1-methyl-piperidin-4-ylmethyl)-amide]
< 1000 | C[C@H]1C[C@@H](N(C)C(=O)CC(C)(C)N)CN(c2ccc(C(F)(F)F)c3ncccc23)C1 [Compound 465, 3-Amino-3,N-dimethyl-N-[(3R,5S)-5-methyl-1-(8-trifluoromethyl-quinolin-5-yl)-piperidin-3-yl]-butyramide]
< 1000 | C[C@@H]1C[C@H](C(=O)NCC2CCN(C)CC2)CN(c2ccc(C(F)(F)F)c3ncccc23)C1 (relative stereo) [Compound 547, cis-5-Methyl-1-(8-trifluoromethyl-quinolin-5-yl)-piperidine-3-carboxylic Acid (1-methyl-piperidin-4-ylmethyl)-amide]
< 1000 | C[C@H]1C[C@@H](NC(=O)CC2CCN(CC(F)F)CC2)CN(c2ccc(C(F)(F)F)c3nccnc23)C1 [Compound 256, 2-[1-(2,2-difluoroethyl)piperidin-4-yl]-N-[(3R,5S)-5-methyl-1-[8-(trifluoromethyl)quinoxalin-5-yl]piperidin-3-yl]acetamide]
< 1000 | C[C@H]1C[C@@H](NC(=O)CO)CN(c2ccc(C(F)(F)F)c3ncccc23)C1 [Compound 240, 2-hydroxy-N-[(3R,5S)-5-methyl-1-[8-(trifluoromethyl)quinolin-5-yl]piperidin-3-yl]acetamide]
< 1000 | C[C@H]1C[C@@H](NC(=O)CN(C)CCO)CN(c2ccc(C#N)c3nccnc23)C1 [Compound 144, N-[(3R,5S)-1-(8-cyanoquinoxalin-5-yl)-5-methylpiperidin-3-yl]-2-[(2-hydroxyethyl)(methyl)amino]acetamide]
< 1000 | CC(C)[C@H](N)C(=O)N[C@@H]1C[C@H](C)CN(c2ccnc3nccnc23)C1 [Compound 105, (2S)-2-amino-3-methyl-N-[(3R,5S)-5-methyl-1-[pyrido[2,3-b]pyrazin-8-yl]piperidin-3-yl]butanamide]
< 1000 | C[C@H]1C[C@@H](NC2CCN(C)C2=O)CN(c2ccc(Cl)c3ncccc23)C1 (single isomer, unassigned) [Compound 260]
< 1000 | CN1CCCC1CNC(=O)C1CCN(c2ccc(C(F)(F)F)c3ncccc23)CC1 (stereo not drawn) [Compound 442, 1-(8-Trifluoromethyl-quinolin-5-yl)-piperidine-4-carboxylic acid (1-methyl-pyrrolidin-2-ylmethyl)-amide]
< 1000 | C[C@H]1C[C@@H](NC(=O)CNS(C)(=O)=O)CN(c2ccc(C#N)c3nccnc23)C1 [Compound 140, N-[(3R,5S)-1-(8-cyanoquinoxalin-5-yl)-5-methylpiperidin-3-yl]-2-methanesulfonamidoacetamide]
< 1000 | C[C@H]1C[C@@H](NC(=O)CC2(O)CCCCC2)CN(c2ccc(C(F)(F)F)c3ncccc23)C1 [Compound 484, 2-(1-Hydroxy-cyclohexyl)-N-[(3R,5S)-5-methyl-1-(8-trifluoromethyl-quinolin-5-yl)-piperidin-3-yl]-acetamide]
< 1000 | C[C@@H]1CN(c2ccnc3nccnc23)C[C@H](CN2CCC(N(C)C)CC2)O1 [Compound 55, N,N-dimethyl-1-(((2S,6R)-6-methyl-4-(pyrido[2,3-b]pyrazin-8-yl)morpholin-2-yl)methyl)piperidin-4-amine]
< 1000 | C[C@H]1C[C@@H](NC(=O)CC2CN(C)C2)CN(c2ccc(C(F)(F)F)c3nccnc23)C1 [Compound 363, N-[(3R,5S)-5-methyl-1-[8-(trifluoromethyl)quinoxalin-5-yl]piperidin-3-yl]-2-(1-methylazetidin-3-yl)acetamide]
< 1000 | CN(C)CC(=O)NC1CN(c2ccc(C#N)c3ncccc23)CC(F)(F)C1 (stereo not drawn) [Compound 425, N-[1-(8-Cyano-quinolin-5-yl)-5,5-difluoro-piperidin-3-yl]-2-dimethylamino-acetamide]
